Our source for the IC50 values is paper PMC8042380, “Brusatol Derivative–34 Attenuates Allergic Airway Inflammation Via Inhibition of the Spleen Tyrosine Kinase Pathway” (Frontiers in Pharmacology, 2021).

The test addresses Spleen tyrosine kinase (Syk) (Homo sapiens, UniProt P43405). The test is described as follows: ADP-Glo kinase assay with purified active Syk (Promega Syk Kinase Enzyme System V3801), Poly E4Y1 substrate, ATP. Type of test: biochemical.

Regarding `COC(=O)[C@@]12OC[C@@]34C(CC5C(C)=C(OC(=O)CCC(=O)OCCCCOc6no[n+]([O-])c6S(=O)(=O)c6ccccc6)C(=O)C[C@]5(C)C3[C@@H](O)[C@@H]1O)OC(=O)[C@H](OC(=O)C=C(C)C)C42` (stereo partly shown) [Bru-34, Brusatol derivative-34], the IC50 stood at 0.54 µM.
